Data published in ChEMBL document CHEMBL1201862, “PubChem BioAssay data set” (2004).
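Tested at 5 concentrations; 48 h exposure; 96-well plates; endpoints linearly interpolated, else capped at highest concentration. At the GI50, growth is halved.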 Activity calls are given as the source filed them. Rule as the data show it: active = GI50 up to about 1.1 µM and inactive = higher.

How the values were obtained:
Assay in all cases: NCI-60 cell line screen, 48 h
A549 = test system: A549
HCT-116 = test system: HCT-116
HT-29 = test system: HT-29
IGROV-1 = test system: IGROV-1
LOX IMVI = test system: LOX IMVI
MCF7 = test system: MCF7
MDA-MB-231 = test system: MDA-MB-231
MDA-N = test system: MDA-N
Malme-3M = test system: Malme-3M
NCI-H23 = test system: NCI-H23
OVCAR-8 = test system: OVCAR-8
SK-MEL-28 = test system: SK-MEL-28
SK-OV-3 = test system: SK-OV-3
SN12C = test system: SN12C
SW-620 = test system: SW-620
U-251 = test system: U-251
HCC 2998 = test system: HCC 2998
NCI-H460 = test system: NCI-H460
SF-539 = test system: SF-539

Measured: GI50

CC(C)CC1[C@@H](OCc2ccccc2)COS(=O)N1Cc1ccccc1 (stereo partly drawn)
inactive: A549 46.6 µM | HCT-116 28.2 µM | HT-29 15.6 µM | IGROV-1 31 µM | LOX IMVI 24.8 µM | MCF7 41.9 µM | MDA-MB-231 20.7 µM | MDA-N 52.8 µM | Malme-3M 23.3 µM | NCI-H23 39.6 µM | OVCAR-8 39 µM | SK-MEL-28 51.3 µM | SK-OV-3 > 100 µM | SN12C 57.8 µM | SW-620 39.8 µM | U-251 29.9 µM

CCC1NCC(=O)c2c1[nH]c1ccccc21 (stereo not drawn)
inactive: A549 > 100 µM | HCC 2998 > 100 µM | HCT-116 > 100 µM | HT-29 > 100 µM | IGROV-1 > 100 µM | LOX IMVI > 100 µM | Malme-3M > 100 µM | NCI-H23 > 100 µM | NCI-H460 > 100 µM | OVCAR-8 > 100 µM | SF-539 > 100 µM | SK-MEL-28 > 100 µM | SK-OV-3 > 100 µM | SN12C > 100 µM | SW-620 > 100 µM | U-251 > 100 µM

CCOC(=O)C(=O)/C(=C/NC(=S)Nc1ccc(Cl)c(Cl)c1)C(=O)OCC
inactive: A549 > 100 µM | HCT-116 75 µM | HT-29 56.9 µM | IGROV-1 85.9 µM | LOX IMVI > 100 µM | MCF7 62.2 µM | MDA-MB-231 > 100 µM | MDA-N 61.2 µM | Malme-3M > 100 µM | NCI-H23 70 µM | NCI-H460 > 100 µM | OVCAR-8 > 100 µM | SF-539 25.6 µM | SK-MEL-28 > 100 µM | SK-OV-3 > 100 µM | SN12C 88.3 µM | SW-620 87.9 µM | U-251 > 100 µM

O=C(CSCC(=O)N/N=C\c1ccc(F)cc1F)N/N=C\c1ccc(F)cc1F
inactive: A549 > 100 µM | HCC 2998 > 100 µM | HCT-116 > 100 µM | HT-29 > 100 µM | IGROV-1 > 100 µM | LOX IMVI > 100 µM | MCF7 > 100 µM | MDA-MB-231 > 100 µM | Malme-3M > 100 µM | NCI-H23 > 100 µM | NCI-H460 > 100 µM | OVCAR-8 > 100 µM | SF-539 > 100 µM | SK-MEL-28 > 100 µM | SK-OV-3 > 100 µM | SN12C > 100 µM | SW-620 > 100 µM | U-251 > 100 µM
